Assay results: ChEMBL document CHEMBL1201862, “PubChem BioAssay data set” (2004)
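Cultured in 96-well plates, cells were exposed to test compound for 48 hours across five concentrations. Abbreviation: GI50, concentration required for 50% inhibition of growth.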 The source made the active and inactive calls. No stated cut-off is given here; in the data, active = GI50 up to about 1.1 µM and inactive = higher.

Assays:
Assay in all cases: NCI-60 cell line screen, 48 h
HCT-15 = system: HCT-15
NCI-H460 = system: NCI-H460
TK-10 = system: TK-10
SNB-19 = system: SNB-19
SK-MEL-2 = system: SK-MEL-2
SK-MEL-5 = system: SK-MEL-5
HL-60 = system: HL-60
NCI-H522 = system: NCI-H522
CAKI-1 = system: CAKI-1
LOX IMVI = system: LOX IMVI
RPMI-8226 = system: RPMI-8226
A498 = system: A498
A549 = system: A549
SK-OV-3 = system: SK-OV-3
SR = system: SR

COc1ccc(/C=C2/C(=O)N(C(=O)c3ccc(Cl)cc3)N=C2C)cc1OC
GI50 (HCT-15): > 100 µM | GI50 (NCI-H460): > 100 µM (inactive) | GI50 (TK-10): > 100 µM (inactive) | GI50 (SNB-19): > 100 µM (inactive) | GI50 (SK-MEL-2): > 100 µM (inactive) | GI50 (SK-MEL-5): > 100 µM (inactive) | GI50 (HL-60): > 100 µM (inactive) | GI50 (NCI-H522): > 100 µM (inactive) | GI50 (CAKI-1): > 100 µM (inactive) | GI50 (LOX IMVI): > 100 µM (inactive) | GI50 (RPMI-8226): > 100 µM (inactive) | GI50 (A498): > 100 µM (inactive) | GI50 (A549): > 100 µM (inactive) | GI50 (SK-OV-3): > 100 µM (inactive)

COc1ccc(/N=c2\ssc3c(=S)ssc23)cc1
GI50 (HCT-15): 18.3 µM | GI50 (TK-10): 57.9 µM (inactive) | GI50 (SK-MEL-2): 60 µM (inactive) | GI50 (SK-MEL-5): 19.4 µM (inactive) | GI50 (HL-60): 4.09 µM (inactive) | GI50 (SR): 3.61 µM (inactive) | GI50 (NCI-H522): 13.9 µM (inactive) | GI50 (CAKI-1): 91.4 µM (inactive) | GI50 (LOX IMVI): 15.7 µM (inactive) | GI50 (RPMI-8226): 9.91 µM (inactive) | GI50 (A549): 31.1 µM (inactive) | GI50 (SK-OV-3): > 100 µM (inactive)

Cc1ccc(C(=O)/C=C/c2ccccc2O)c(C)c1
GI50 (HCT-15): > 100 µM | GI50 (NCI-H460): > 100 µM (inactive) | GI50 (TK-10): > 100 µM (inactive) | GI50 (SNB-19): > 100 µM (inactive) | GI50 (SK-MEL-2): > 100 µM (inactive) | GI50 (SK-MEL-5): > 100 µM (inactive) | GI50 (HL-60): > 100 µM (inactive) | GI50 (NCI-H522): > 100 µM (inactive) | GI50 (CAKI-1): > 100 µM (inactive) | GI50 (LOX IMVI): > 100 µM (inactive) | GI50 (RPMI-8226): 18.7 µM (inactive) | GI50 (A498): > 100 µM (inactive) | GI50 (A549): > 100 µM (inactive) | GI50 (SK-OV-3): > 100 µM (inactive)

COc1ccccc1/C=N/N=C(\N)NO
GI50 (HCT-15): 6.32 µM | GI50 (NCI-H460): 4.14 µM (inactive) | GI50 (SNB-19): > 100 µM (inactive) | GI50 (SK-MEL-2): 23.8 µM (inactive) | GI50 (SK-MEL-5): 2.77 µM (inactive) | GI50 (SR): 31.8 µM (inactive) | GI50 (NCI-H522): 18.7 µM (inactive) | GI50 (CAKI-1): 7.28 µM (inactive) | GI50 (LOX IMVI): 4.47 µM (inactive) | GI50 (RPMI-8226): 29.2 µM (inactive) | GI50 (A498): 33.5 µM (inactive) | GI50 (A549): 4.76 µM (inactive) | GI50 (SK-OV-3): 71.9 µM (inactive)

O=C1Nc2ccccc2C1(O)C/C(=N/O)c1ccc2ccccc2c1 (stereo not given)
GI50 (HCT-15): > 100 µM | GI50 (NCI-H460): > 100 µM (inactive) | GI50 (TK-10): > 100 µM (inactive) | GI50 (SNB-19): > 100 µM (inactive) | GI50 (SK-MEL-2): > 100 µM (inactive) | GI50 (HL-60): 41.8 µM (inactive) | GI50 (NCI-H522): > 100 µM (inactive) | GI50 (LOX IMVI): 22.3 µM (inactive) | GI50 (RPMI-8226): 87.1 µM (inactive) | GI50 (A498): > 100 µM (inactive) | GI50 (A549): > 100 µM (inactive) | GI50 (SK-OV-3): 49.1 µM (inactive)

Cc1cc(NC(=O)C2C3C=CC(O3)C2C(=O)O)no1 (stereo not given)
GI50 (HCT-15): 18.5 µM | GI50 (NCI-H460): 31.7 µM (inactive) | GI50 (TK-10): > 100 µM (inactive) | GI50 (SNB-19): > 100 µM (inactive) | GI50 (SK-MEL-2): > 100 µM (inactive) | GI50 (SK-MEL-5): > 100 µM (inactive) | GI50 (HL-60): 23.5 µM (inactive) | GI50 (SR): 21.8 µM (inactive) | GI50 (NCI-H522): > 100 µM (inactive) | GI50 (LOX IMVI): 14.3 µM (inactive) | GI50 (RPMI-8226): 16.6 µM (inactive) | GI50 (A498): 48 µM (inactive) | GI50 (A549): 34.8 µM (inactive) | GI50 (SK-OV-3): > 100 µM (inactive)

Cc1ccc(S(=O)(=O)OC2CC=CC2)cc1
GI50 (HCT-15): > 100 µM | GI50 (NCI-H460): > 100 µM (inactive) | GI50 (TK-10): > 100 µM (inactive) | GI50 (SNB-19): > 100 µM (inactive) | GI50 (SK-MEL-2): > 100 µM (inactive) | GI50 (SK-MEL-5): > 100 µM (inactive) | GI50 (HL-60): > 100 µM (inactive) | GI50 (CAKI-1): > 100 µM (inactive) | GI50 (LOX IMVI): > 100 µM (inactive) | GI50 (RPMI-8226): > 100 µM (inactive) | GI50 (A549): > 100 µM (inactive) | GI50 (SK-OV-3): > 100 µM (inactive)

O=C1NC(=O)C(CCC(=O)c2ccc3ccccc3c2)C(=O)N1
GI50 (HCT-15): > 100 µM | GI50 (NCI-H460): > 100 µM (inactive) | GI50 (TK-10): > 100 µM (inactive) | GI50 (SNB-19): > 100 µM (inactive) | GI50 (SK-MEL-2): > 100 µM (inactive) | GI50 (SK-MEL-5): > 100 µM (inactive) | GI50 (HL-60): > 100 µM (inactive) | GI50 (SR): > 100 µM (inactive) | GI50 (NCI-H522): 20.1 µM (inactive) | GI50 (CAKI-1): > 100 µM (inactive) | GI50 (LOX IMVI): > 100 µM (inactive) | GI50 (A498): > 100 µM (inactive) | GI50 (A549): > 100 µM (inactive) | GI50 (SK-OV-3): > 100 µM (inactive)

C=CCC1(C(=O)OC(C)(C)C)C(OC)=C(C(=O)OC(C)(C)C)C2C1C(C(=O)OC(C)(C)C)=C(OC)C2(CC=C)C(=O)OC(C)(C)C (stereo not given)
GI50 (HCT-15): > 100 µM | GI50 (TK-10): 64.6 µM (inactive) | GI50 (SNB-19): > 100 µM (inactive) | GI50 (SK-MEL-2): > 100 µM (inactive) | GI50 (HL-60): > 100 µM (inactive) | GI50 (SR): > 100 µM (inactive) | GI50 (NCI-H522): > 100 µM (inactive) | GI50 (RPMI-8226): > 100 µM (inactive) | GI50 (A549): > 100 µM (inactive) | GI50 (SK-OV-3): > 100 µM (inactive)

COc1cc(C2C(C(=O)O)=C(C)Oc3cc4c(cc32)OCO4)cc(OC)c1OC (stereo not given)
GI50 (HCT-15): 18.5 µM | GI50 (NCI-H460): 37.7 µM (inactive) | GI50 (TK-10): 88.3 µM (inactive) | GI50 (SNB-19): 40.6 µM (inactive) | GI50 (SK-MEL-5): 23.1 µM (inactive) | GI50 (HL-60): 15.7 µM (inactive) | GI50 (CAKI-1): 9.04 µM (inactive) | GI50 (LOX IMVI): 41.3 µM (inactive) | GI50 (RPMI-8226): > 10 µM (inactive) | GI50 (A549): 45 µM (inactive) | GI50 (SK-OV-3): 39.9 µM (inactive)

CC(O)CN1C(=O)NC(Cc2ccccc2)C1=O (stereo not given)
GI50 (NCI-H460): > 100 µM (inactive) | GI50 (TK-10): > 100 µM (inactive) | GI50 (SNB-19): > 100 µM (inactive) | GI50 (SK-MEL-2): > 100 µM (inactive) | GI50 (HL-60): > 100 µM (inactive) | GI50 (SR): > 100 µM (inactive) | GI50 (NCI-H522): > 100 µM (inactive) | GI50 (CAKI-1): > 100 µM (inactive) | GI50 (LOX IMVI): > 100 µM (inactive) | GI50 (A549): > 100 µM (inactive)

Cc1cc2c(c(C(N)=O)c1C)-c1ccccc1C2=O
GI50 (HCT-15): > 100 µM | GI50 (NCI-H460): > 100 µM (inactive) | GI50 (TK-10): > 100 µM (inactive) | GI50 (SNB-19): > 100 µM (inactive) | GI50 (SK-MEL-2): > 100 µM (inactive) | GI50 (HL-60): > 100 µM (inactive) | GI50 (NCI-H522): > 100 µM (inactive) | GI50 (LOX IMVI): > 100 µM (inactive) | GI50 (RPMI-8226): > 100 µM (inactive) | GI50 (A498): 51.4 µM (inactive) | GI50 (A549): > 100 µM (inactive) | GI50 (SK-OV-3): > 100 µM (inactive)

CC(=O)Nc1cc(N(CCOS(C)(=O)=O)CCOS(C)(=O)=O)ccc1N=O
GI50 (HCT-15): > 100 µM | GI50 (NCI-H460): > 100 µM (inactive) | GI50 (TK-10): > 100 µM (inactive) | GI50 (SNB-19): > 100 µM (inactive) | GI50 (SK-MEL-2): > 100 µM (inactive) | GI50 (SK-MEL-5): > 100 µM (inactive) | GI50 (HL-60): > 100 µM (inactive) | GI50 (SR): > 100 µM (inactive) | GI50 (NCI-H522): > 100 µM (inactive) | GI50 (CAKI-1): > 100 µM (inactive) | GI50 (RPMI-8226): > 100 µM (inactive) | GI50 (A549): > 100 µM (inactive)

OCCCOC(c1ccccc1)(c1ccccc1)c1ccccc1
GI50 (HCT-15): > 100 µM | GI50 (NCI-H460): > 100 µM (inactive) | GI50 (TK-10): > 100 µM (inactive) | GI50 (SK-MEL-5): > 100 µM (inactive) | GI50 (HL-60): > 100 µM (inactive) | GI50 (SR): > 100 µM (inactive) | GI50 (NCI-H522): > 100 µM (inactive) | GI50 (CAKI-1): > 100 µM (inactive) | GI50 (LOX IMVI): 35.6 µM (inactive) | GI50 (RPMI-8226): > 100 µM (inactive) | GI50 (A549): > 100 µM (inactive) | GI50 (SK-OV-3): > 100 µM (inactive)

COc1ccc(OCC(=O)O)c(C(=O)CCC(=O)O)c1
GI50 (HCT-15): > 100 µM | GI50 (NCI-H460): > 100 µM (inactive) | GI50 (TK-10): > 100 µM (inactive) | GI50 (SNB-19): > 100 µM (inactive) | GI50 (SK-MEL-2): > 100 µM (inactive) | GI50 (SK-MEL-5): > 100 µM (inactive) | GI50 (HL-60): > 100 µM (inactive) | GI50 (SR): > 100 µM (inactive) | GI50 (NCI-H522): > 100 µM (inactive) | GI50 (LOX IMVI): > 100 µM (inactive) | GI50 (RPMI-8226): > 100 µM (inactive) | GI50 (A498): > 100 µM (inactive) | GI50 (A549): > 100 µM (inactive) | GI50 (SK-OV-3): > 100 µM (inactive)

CCN(CC)CCN1C(=O)CC2[C@@H]3CCc4cc(OC)ccc4C3CC[C@]2(C)C1=O (stereo not given in full)
GI50 (NCI-H460): 37.6 µM (inactive) | GI50 (SNB-19): > 100 µM (inactive) | GI50 (SK-MEL-2): 20.9 µM (inactive) | GI50 (HL-60): 16.8 µM (inactive) | GI50 (SR): > 10 µM (inactive) | GI50 (NCI-H522): 22.3 µM (inactive) | GI50 (RPMI-8226): 21.7 µM (inactive) | GI50 (A498): 36 µM (inactive) | GI50 (SK-OV-3): > 100 µM (inactive)
